Results: US20240325544A1, “CATIONIC LIPID FOR COVALENT MODIFICATION OF PEPTIDES” (PharmalN Corporation, priority 2023, published 2024)
Marks after values point to notes of the source that are not given here. Bridge positions count the residues as written; N and C are the ends. Square brackets hold non-standard residues; d marks the D form. Peptide text beside a SMILES is read from it. * marks the point of attachment. Palmitoyl = CCCCCCCCCCCCCCCC(=O)*; Dab = NCC[C@H](N)C(=O)O; Dap = NC[C@H](N)C(=O)O; AEEA = NCCOCCOCC(=O)O

What was measured:
cGMP [1] = experiment: Plasma cGMP after SC bolus of natriuretic peptides in CD-1 mice (pharmacodynamics, Table 3); format: in vivo; details: SC bolus 1.0 mg/kg (≤0.45 μmol/kg), baseline 10 +/−8 pmol/ml, n = 3-5
Procedure, shortened: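 Peptides given SC in sterile water; retro-orbital blood at 2 and 6 h post-dose (two bleeds per mouse), K2EDTA plasma. Plasma cGMP by commercial immunoassay kit; ANP, BNP or CNP plasma levels by peptide-specific ELISA.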

[2] = mouse, in vivo, sc, 1 mg/kg
Procedure: FIGS. 1A-1B: PK/PD Profiles for single subcutaneous (SC) injection of native CNP (SEQ ID NO: 32), SEQ ID NO: 31, and SEQ ID NO: 29 at 1.0 mg/kg (0.45, 0.33, and 0.33 μmol/kg, respectively) in mice. Error bars represent standard error of the mean. FIG. 1A) Plasma CNP [mean (SEM); n=5] in CD-1 mice after subcutaneous administration of 1.0 mg/kg of native CNP (SEQ ID NO: 32), SEQ ID NO: 31, and SEQ ID NO: 29 (0.45, 0.33, and 0.33 μmol/kg, respectively) in buffer. […] Plasma CNP in CD-1 mice was measured by CNP ELISA kit from Phoenix Pharmaceuticals (EKE-012-03, Burlingame, CA).
The animals were kept in PharmaIN animal facility with controlled temperature (68-74° F.) and humidity (30-60%), and a 12-hour light/dark cycle. […] Lead buffer was used to formulate or dissolve all test articles on the day of administration. […] Biochemical analysis: For pharmacokinetic study, plasma aliquots were thawed at 4° C. then analyzed using a commercially available CNP ELISA kit from Phoenix Pharmaceuticals (cat #EKE-012-03), which detects the cyclic structure of CNP and all CNP derivatives with the same level of reactivity to the ELISA kit. […] For pharmacodynamic or bioactivity study of cGMP, plasma aliquots were thawed at 4° C. then analyzed using a commercially available cGMP kit from Abcam (ab133052, Waltham, MA).

Sprague Dawley rats = details: rat, in vivo, sc
cGMP [3] = experiment: Plasma cGMP profile after single SC injection in CD-1 mice (FIG. 1B); format: in vivo; details: 1.0 mg/kg SC, 0-24 hours
Procedure: The animals were kept in PharmaIN animal facility with controlled temperature (68-74° F.) and humidity (30-60%), and a 12-hour light/dark cycle. […] Lead buffer was used to formulate or dissolve all test articles on the day of administration. Blood sampling: Blood samples were collected via retro-orbital bleed at several timepoints (0, 0.5, 1, 2, 4, 6, 8, and 24 hours) and processed in K2EDTA tubes (2000× g; 15 min, 4° C. within 30 minutes after collection) to obtain plasma. Plasma samples were aliquoted and stored at −80° C. until analysis. Biochemical analysis: For pharmacokinetic study, plasma aliquots were thawed at 4° C. then analyzed using a commercially available CNP ELISA kit from Phoenix Pharmaceuticals (cat #EKE-012-03), which detects the cyclic structure of CNP and all CNP derivatives with the same level of reactivity to the ELISA kit. […] For pharmacodynamic or bioactivity study of cGMP, plasma aliquots were thawed at 4° C. then analyzed using a commercially available cGMP kit from Abcam (ab133052, Waltham, MA).

human NPRB = biological target: T1, human NPRB (Homo sapiens, UniProt P20594); experiment: Fluorescence polarization (FP) assay with CNP-F* probe, NPRB; format: binding; details: 150 nM test article, 5 nM CNP-F*, 50 nM human NPRB
T1 construct: NPRB R1-T433, (GenBank Accn. #NP_003986.2); made in house; host or cells: Expi293 cells
T1 sequence (P20594 23-455): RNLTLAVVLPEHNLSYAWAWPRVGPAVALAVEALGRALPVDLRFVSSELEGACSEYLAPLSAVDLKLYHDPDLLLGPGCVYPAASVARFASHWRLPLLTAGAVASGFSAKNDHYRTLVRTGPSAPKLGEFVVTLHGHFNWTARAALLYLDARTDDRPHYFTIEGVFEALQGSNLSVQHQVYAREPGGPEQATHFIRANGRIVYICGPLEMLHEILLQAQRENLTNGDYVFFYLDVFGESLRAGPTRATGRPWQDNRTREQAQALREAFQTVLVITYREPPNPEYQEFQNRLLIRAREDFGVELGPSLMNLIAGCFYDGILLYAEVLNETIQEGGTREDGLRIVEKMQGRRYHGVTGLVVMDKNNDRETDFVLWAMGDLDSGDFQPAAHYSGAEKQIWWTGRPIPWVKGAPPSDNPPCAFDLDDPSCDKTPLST
Procedure: Error bars represent standard error of the mean. […] NO.
In the presence of [SEQ ID.
The CNP-F* probe was incubated at a final concentration of 5 nM in the presence of 50 nM human NPRB or NPRC in an assay buffer containing PBS, pH 7.4 and 0.01% Triton X-100. A […] volume of CNP-F* probe and NPR were dispensed into a black 96-well Costar flat-bottom polystyrene plate prior to FP measurement. Next, […] volume of SEQ ID. No. 31 (final concentration 150 nM) was added to the premixed probe and NPR. The plate was incubated at room temperature for 10 min. Fluorescence polarization was then measured on Flexstation 3 (excitation wavelength: 480 nm; emission wavelength: 525 nm and cutoff at 515 nm).
CNP-F* was prepared using solid phase peptide synthesis. […] Next, the crude linear peptide was cleavage with 95% TFA in the presence of carbocation scavengers and ether precipitation.

Question: Which “Plasma concentration of cGMP, 2 hr” value (cGMP [1]) does the source give for `CCCCCCCCCCCCCCCC(=O)NCCOCCOCC(=O)NCCOCCOCC(=O)NCCOCCOCC(=O)N[C@@H](CN)C(=O)N[C@@H](CN)C(=O)NCC(=O)N[C@@H](CC(C)C)C(=O)N[C@@H](CO)C(=O)N[C@@H](CCCCN)C(=O)NCC(=O)N[C@H]1CSSC[C@@H](C(=O)O)NC(=O)CNC(=O)[C@H](CC(C)C)NC(=O)CNC(=O)[C@H](CO)NC(=O)[C@H](CCC(N)=O)NC(=O)[C@H](CO)NC(=O)CNC(=O)[C@H]([C@@H](C)CC)NC(=O)[C@H](CCCNC(=N)N)NC(=O)[C@H](CC(=O)O)NC(=O)[C@H](CC(C)C)NC(=O)[C@H](CCCCN)NC(=O)[C@H](CC(C)C)NC(=O)CNC(=O)[C@H](Cc2ccccc2)NC1=O` [SEQ ID NO: 31] ({Palmitoyl-AEEA-AEEA-AEEA}-[Dap][Dap]GLSKGCFGLKLDRIGSQSGLGC-OH; disulfide 8-24; C-terminus assumed) here?
Answer: 98.34**** pmol/mL

Question: What about the “Plasma concentration of cGMP, 6 hr” value (cGMP [1]) of the same molecule?
Answer: 53.62*** pmol/mL

Question: And the “Increase of baseline plasma CNP levels” value [2]?
Answer: over 5 fold

Question: And the “Swelling and/or Discoloration in n = 3” value (Sprague Dawley rats)?
Answer: (3.3) μmol/kg

Question: And the “Plasma cGMP levels over time compared to native CNP” value (cGMP [3])?
Answer: sustained elevation of cGMP levels

Question: And the “Binding to NPRB (FP signal of CNP-F* probe)” value (human NPRB)?
Answer: low FP signal demonstrates binding

Question: With `CCCCCCCCCCCCCCCC(=O)NCCOCCOCC(=O)NCCOCCOCC(=O)NCCOCCOCC(=O)N[C@@H](CCN)C(=O)N[C@@H](CCN)C(=O)NCC(=O)N[C@@H](CC(C)C)C(=O)N[C@@H](CO)C(=O)N[C@@H](CCCCN)C(=O)NCC(=O)N[C@H]1CSSC[C@@H](C(=O)O)NC(=O)CNC(=O)[C@H](CC(C)C)NC(=O)CNC(=O)[C@H](CO)NC(=O)[C@H](CCC(N)=O)NC(=O)[C@H](CO)NC(=O)CNC(=O)[C@H]([C@@H](C)CC)NC(=O)[C@H](CCCNC(=N)N)NC(=O)[C@H](CC(=O)O)NC(=O)[C@H](CC(C)C)NC(=O)[C@H](CCCCN)NC(=O)[C@H](CC(C)C)NC(=O)CNC(=O)[C@H](Cc2ccccc2)NC1=O` [SEQ ID NO: 29] ({Palmitoyl-AEEA-AEEA-AEEA}-[Dab][Dab]GLSKGCFGLKLDRIGSQSGLGC-OH; disulfide 8-24; C-terminus assumed) as the molecule, how does the “Plasma concentration of cGMP, 2 hr” value (cGMP [1]) read?
Answer: 157.31* pmol/mL

Question: What about the “Plasma concentration of cGMP, 6 hr” value (cGMP [1]) of the same molecule?
Answer: 65.65* pmol/mL

Question: And the “Increase of baseline plasma CNP levels” value [2]?
Answer: > 10 fold

Question: What about the “Swelling and/or Discoloration in n = 3” value (Sprague Dawley rats) of the same molecule?
Answer: (3.1) μmol/kg

Question: And the “Plasma cGMP levels over time compared to native CNP” value (cGMP [3])?
Answer: sustained elevation of cGMP levels
